Assay results as given in ChEMBL document CHEMBL1201862, “PubChem BioAssay data set” (2004).
Activity calls are given as the source filed them.

Assays:
Prothrombin = Prothrombin (Bos taurus, UniProt P00735); experiment: thrombin protease inhibitors – biochemical, fluorescence polarization, uHTS hits, dose response (AID 602369); type: functional
[1] = molecular target: T1, Small ubiquitin-related modifier 1 (Homo sapiens, UniProt P63165); experiment: SUMO1 protein-protein binding blockers, potency – biochemical, FRET, dose response (AID 624383); type: functional; settings: read-out: IC50_Mean
[2] = molecular target: T2, Dual specificity protein phosphatase 3 (Homo sapiens, UniProt P51452); experiment: VHR1 phosphatase inhibitors, biochemical (AID 1878)
[3] = molecular target: 26S proteasome non-ATPase regulatory subunit 14 (Homo sapiens, UniProt O00487); experiment: inhibition of proteasome subunit RPN11 – biochemical, fluorescence polarization, uHTS hits, confirmation (AID 602368); type: functional
[4] = molecular target: 72 kDa type IV collagenase (Homo sapiens, UniProt P08253); experiment: Dose Response validation of uHTS RPN11 inhibitor hits using a MMP-2 Fluorescence assay.; type: functional
SUMO-activating enzyme [5] = molecular target: T3, SUMO-activating enzyme (Homo sapiens, UniProt Q9UBT2); experiment: blockers of SAE1/SAE2–UBC9 SUMO transfer – biochemical, HTRF, uHTS, primary screen (AID 2006); type: protein-complex assay
[6] = molecular target: T4, Dual specificity protein phosphatase 6 (Rattus norvegicus, UniProt Q64346); experiment: inhibition of rat DUSP6 enzyme activity – biochemical, in vitro, primary screen (AID 425)
T4 sequence (Q64346 whole entry): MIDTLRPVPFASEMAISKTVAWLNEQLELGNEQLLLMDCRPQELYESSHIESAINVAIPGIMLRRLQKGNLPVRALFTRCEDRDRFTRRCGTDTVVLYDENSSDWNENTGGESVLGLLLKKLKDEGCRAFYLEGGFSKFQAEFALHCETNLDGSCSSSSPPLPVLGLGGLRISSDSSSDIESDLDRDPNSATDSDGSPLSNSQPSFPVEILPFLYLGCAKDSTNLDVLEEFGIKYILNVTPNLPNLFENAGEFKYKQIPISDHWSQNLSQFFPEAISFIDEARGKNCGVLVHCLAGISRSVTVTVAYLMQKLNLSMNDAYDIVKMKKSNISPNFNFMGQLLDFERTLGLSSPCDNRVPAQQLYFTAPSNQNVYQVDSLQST

[7] = molecular target: T1, Small ubiquitin-related modifier 1; experiment: SUMO1 protein interaction blockers, potency – biochemical, fluorescence polarization, uHTS hits, dose response (AID 624382); type: functional; settings: read-out: IC50_Mean
SUMO-activating enzyme [8] = molecular target: T3, SUMO-activating enzyme; experiment: blockers of UBC9-mediated SUMO conjugation – biochemical, AlphaScreen, SUMOylation inhibitor project, confirmation (AID 2018); type: functional
[9] = molecular target: T2, Dual specificity protein phosphatase 3; experiment: VHR1 phosphatase inhibitors, primary screen, biochemical, absorbance, uHTS (AID 1654)
Hexokinase HKDC1 = molecular target: T5, Hexokinase HKDC1 (Homo sapiens, UniProt Q2TB90); experiment: activation of HKDC1 glucose phosphorylation – biochemical, W721R variant, dose response (AID 504730); type: functional
T5 sequence (Q2TB90 whole entry): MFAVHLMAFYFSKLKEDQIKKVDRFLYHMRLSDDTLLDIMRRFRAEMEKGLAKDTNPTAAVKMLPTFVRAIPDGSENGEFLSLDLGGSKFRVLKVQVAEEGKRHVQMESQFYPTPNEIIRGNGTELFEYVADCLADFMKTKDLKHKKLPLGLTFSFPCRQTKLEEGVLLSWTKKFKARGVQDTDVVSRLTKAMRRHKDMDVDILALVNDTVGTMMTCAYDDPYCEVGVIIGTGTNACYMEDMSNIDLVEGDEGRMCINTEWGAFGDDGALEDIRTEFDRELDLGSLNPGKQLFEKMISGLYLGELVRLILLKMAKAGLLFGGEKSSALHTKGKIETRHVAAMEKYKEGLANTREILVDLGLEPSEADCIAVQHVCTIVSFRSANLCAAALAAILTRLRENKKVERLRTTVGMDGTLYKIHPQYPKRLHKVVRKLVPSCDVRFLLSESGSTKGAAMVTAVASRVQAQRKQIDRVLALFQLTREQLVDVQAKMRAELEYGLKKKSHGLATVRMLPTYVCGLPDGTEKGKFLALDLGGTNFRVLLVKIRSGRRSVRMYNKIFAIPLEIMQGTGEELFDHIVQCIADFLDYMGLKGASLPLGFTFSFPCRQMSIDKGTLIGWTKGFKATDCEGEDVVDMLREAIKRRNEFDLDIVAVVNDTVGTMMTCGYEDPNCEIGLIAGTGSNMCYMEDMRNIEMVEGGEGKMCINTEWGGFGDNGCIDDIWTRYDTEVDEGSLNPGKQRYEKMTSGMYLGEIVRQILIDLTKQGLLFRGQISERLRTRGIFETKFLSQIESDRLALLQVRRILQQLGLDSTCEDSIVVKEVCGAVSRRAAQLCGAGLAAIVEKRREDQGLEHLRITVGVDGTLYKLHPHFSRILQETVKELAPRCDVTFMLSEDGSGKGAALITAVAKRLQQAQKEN

Hexokinase-1 = molecular target: T6, Hexokinase-1 (Homo sapiens, UniProt P19367); experiment: HK1 enzyme activation by HKDC1 hits – biochemical, selectivity assay for HKDC1 activator project, dose response (AID 504762); type: functional
T6 sequence (P19367 whole entry): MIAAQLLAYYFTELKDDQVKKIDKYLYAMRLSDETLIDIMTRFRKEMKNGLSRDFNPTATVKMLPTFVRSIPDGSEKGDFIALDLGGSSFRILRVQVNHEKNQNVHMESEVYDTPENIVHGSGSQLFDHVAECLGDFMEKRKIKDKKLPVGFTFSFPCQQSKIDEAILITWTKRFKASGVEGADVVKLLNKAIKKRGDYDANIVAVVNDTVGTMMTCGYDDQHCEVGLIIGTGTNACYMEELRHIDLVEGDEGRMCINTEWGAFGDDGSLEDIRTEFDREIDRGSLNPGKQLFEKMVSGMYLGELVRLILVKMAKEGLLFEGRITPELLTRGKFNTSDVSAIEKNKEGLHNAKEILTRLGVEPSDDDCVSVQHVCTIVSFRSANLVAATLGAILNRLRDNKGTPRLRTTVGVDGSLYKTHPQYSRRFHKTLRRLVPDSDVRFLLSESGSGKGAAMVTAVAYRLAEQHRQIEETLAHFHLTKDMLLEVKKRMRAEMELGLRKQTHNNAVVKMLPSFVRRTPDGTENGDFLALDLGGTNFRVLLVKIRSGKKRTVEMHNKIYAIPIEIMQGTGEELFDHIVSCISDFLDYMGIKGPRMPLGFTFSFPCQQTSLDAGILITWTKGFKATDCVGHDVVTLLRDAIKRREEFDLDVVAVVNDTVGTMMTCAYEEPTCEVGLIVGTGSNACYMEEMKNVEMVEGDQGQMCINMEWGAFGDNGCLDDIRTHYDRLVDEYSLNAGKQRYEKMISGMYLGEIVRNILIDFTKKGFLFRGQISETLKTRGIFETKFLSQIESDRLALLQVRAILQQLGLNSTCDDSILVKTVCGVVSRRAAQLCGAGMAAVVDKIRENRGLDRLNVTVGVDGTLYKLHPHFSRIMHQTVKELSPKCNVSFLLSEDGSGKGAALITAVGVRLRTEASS

[10] = molecular target: T7, Tyrosine-protein phosphatase non-receptor type 7 (Homo sapiens, UniProt P35236); experiment: inhibition of hematopoietic tyrosine phosphatase HePTP – biochemical, set 2, SAR follow-up (AID 449736); type: functional
T7 sequence (P35236 whole entry): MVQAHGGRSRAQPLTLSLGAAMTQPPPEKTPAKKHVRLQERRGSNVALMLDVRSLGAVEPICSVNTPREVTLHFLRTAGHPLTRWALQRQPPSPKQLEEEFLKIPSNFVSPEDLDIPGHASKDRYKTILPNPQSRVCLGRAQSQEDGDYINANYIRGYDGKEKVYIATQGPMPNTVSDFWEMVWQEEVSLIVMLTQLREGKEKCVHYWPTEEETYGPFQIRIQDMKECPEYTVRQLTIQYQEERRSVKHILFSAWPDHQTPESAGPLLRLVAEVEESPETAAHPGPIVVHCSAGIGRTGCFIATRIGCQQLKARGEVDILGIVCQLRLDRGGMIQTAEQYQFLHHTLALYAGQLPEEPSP

[11] = molecular target: T8, Kappa-type opioid receptor (Homo sapiens, UniProt P41145); type: functional
[12] = molecular target: T9, Delta-type opioid receptor (Homo sapiens, UniProt P41143); experiment: HTS Image-Based Screen for Antagonists of the DOR Receptor. [Related pubchem assays (depositor defined):AID1777, AID1785, AID1786, AID2133]; type: functional
Mu-type opioid receptor = Mu-type opioid receptor (Homo sapiens, UniProt P35372); experiment: HTS Image-Based Screen for Agonists of the MOR Receptor. [Related pubchem assays (depositor defined):AID1777, AID1785, AID1786, AID2133]; type: functional;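 note: imaging of beta-arrestin GFP recruitment into spots after receptor activation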
Beta-galactosidase = Beta-galactosidase (Escherichia coli, UniProt Q8VNN2); type: functional
[13] = molecular target: T8, Kappa-type opioid receptor; type: functional; remark: listed apart in the source
[14] = molecular target: T9, Delta-type opioid receptor; experiment: HTS Image-Based Screen for Agonists of the DOR Receptor. [Related pubchem assays (depositor defined):AID1777, AID1786, AID2133]; type: functional

T9 sequence (P41143 whole entry): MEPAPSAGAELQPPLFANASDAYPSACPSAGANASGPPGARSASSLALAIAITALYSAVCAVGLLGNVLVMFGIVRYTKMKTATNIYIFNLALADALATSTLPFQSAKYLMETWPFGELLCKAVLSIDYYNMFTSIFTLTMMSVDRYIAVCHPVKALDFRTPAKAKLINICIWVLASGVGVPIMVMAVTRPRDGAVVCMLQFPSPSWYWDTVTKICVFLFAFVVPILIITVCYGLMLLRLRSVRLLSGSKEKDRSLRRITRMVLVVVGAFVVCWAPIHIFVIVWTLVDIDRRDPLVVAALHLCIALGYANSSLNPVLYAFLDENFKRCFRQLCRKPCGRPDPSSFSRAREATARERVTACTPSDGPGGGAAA
T3 sequence (Q9UBE0 whole entry): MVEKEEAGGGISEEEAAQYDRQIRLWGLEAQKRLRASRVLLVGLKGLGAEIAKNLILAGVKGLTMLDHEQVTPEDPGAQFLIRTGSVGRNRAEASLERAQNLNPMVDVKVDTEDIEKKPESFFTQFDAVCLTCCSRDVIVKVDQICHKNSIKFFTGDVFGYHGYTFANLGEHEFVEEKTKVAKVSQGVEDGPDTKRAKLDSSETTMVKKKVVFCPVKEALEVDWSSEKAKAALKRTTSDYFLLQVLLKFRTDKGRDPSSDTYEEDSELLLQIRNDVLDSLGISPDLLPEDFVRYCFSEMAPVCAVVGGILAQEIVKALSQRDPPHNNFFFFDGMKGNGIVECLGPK
T3 sequence (Q9UBT2 whole entry): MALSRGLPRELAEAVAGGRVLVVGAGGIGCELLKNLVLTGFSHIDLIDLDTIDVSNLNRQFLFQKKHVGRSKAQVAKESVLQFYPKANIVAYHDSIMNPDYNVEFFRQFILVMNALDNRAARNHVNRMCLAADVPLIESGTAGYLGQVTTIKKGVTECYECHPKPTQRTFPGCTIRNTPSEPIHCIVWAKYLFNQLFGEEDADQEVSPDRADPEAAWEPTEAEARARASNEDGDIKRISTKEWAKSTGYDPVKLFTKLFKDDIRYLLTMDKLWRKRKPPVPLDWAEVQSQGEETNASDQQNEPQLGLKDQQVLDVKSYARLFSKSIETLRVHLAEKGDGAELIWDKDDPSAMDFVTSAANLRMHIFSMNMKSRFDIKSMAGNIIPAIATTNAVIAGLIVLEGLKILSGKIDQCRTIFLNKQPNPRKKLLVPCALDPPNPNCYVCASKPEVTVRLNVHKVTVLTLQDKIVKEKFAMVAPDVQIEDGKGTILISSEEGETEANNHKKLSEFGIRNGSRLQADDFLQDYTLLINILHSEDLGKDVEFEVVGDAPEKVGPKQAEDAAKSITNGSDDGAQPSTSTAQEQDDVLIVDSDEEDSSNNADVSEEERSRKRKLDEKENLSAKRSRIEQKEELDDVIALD
T1 sequence (P63165 whole entry): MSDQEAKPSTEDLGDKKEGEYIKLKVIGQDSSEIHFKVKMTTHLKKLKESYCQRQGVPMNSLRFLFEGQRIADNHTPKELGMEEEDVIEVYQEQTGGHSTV
T8 sequence (P41145 whole entry): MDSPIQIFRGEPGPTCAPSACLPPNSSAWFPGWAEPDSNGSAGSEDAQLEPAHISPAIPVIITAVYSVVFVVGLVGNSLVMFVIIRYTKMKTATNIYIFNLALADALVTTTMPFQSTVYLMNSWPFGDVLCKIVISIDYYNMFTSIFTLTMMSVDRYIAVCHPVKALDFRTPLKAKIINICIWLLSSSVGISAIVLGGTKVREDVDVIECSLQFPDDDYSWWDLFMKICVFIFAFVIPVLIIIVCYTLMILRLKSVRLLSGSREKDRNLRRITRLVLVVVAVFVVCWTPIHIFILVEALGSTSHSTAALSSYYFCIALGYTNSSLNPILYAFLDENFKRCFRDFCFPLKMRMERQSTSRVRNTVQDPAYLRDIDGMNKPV
T2 sequence (P51452 whole entry): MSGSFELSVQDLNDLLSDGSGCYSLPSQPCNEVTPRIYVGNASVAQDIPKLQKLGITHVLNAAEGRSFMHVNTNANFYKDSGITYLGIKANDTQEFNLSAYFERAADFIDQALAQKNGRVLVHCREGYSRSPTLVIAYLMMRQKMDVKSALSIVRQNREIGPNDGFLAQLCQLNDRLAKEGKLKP
Sequence of 26S proteasome non-ATPase regulatory subunit 14 (O00487 whole entry): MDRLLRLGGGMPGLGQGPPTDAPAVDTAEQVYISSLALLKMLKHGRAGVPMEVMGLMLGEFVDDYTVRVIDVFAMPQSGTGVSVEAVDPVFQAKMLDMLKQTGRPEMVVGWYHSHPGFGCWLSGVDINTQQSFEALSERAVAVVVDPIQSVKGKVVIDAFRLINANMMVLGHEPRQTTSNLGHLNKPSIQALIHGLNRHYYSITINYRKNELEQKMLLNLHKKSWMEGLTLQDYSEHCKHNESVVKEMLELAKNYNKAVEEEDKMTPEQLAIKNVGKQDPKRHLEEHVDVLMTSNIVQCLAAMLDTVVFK
Sequence of Beta-galactosidase (Q8VNN2 whole entry): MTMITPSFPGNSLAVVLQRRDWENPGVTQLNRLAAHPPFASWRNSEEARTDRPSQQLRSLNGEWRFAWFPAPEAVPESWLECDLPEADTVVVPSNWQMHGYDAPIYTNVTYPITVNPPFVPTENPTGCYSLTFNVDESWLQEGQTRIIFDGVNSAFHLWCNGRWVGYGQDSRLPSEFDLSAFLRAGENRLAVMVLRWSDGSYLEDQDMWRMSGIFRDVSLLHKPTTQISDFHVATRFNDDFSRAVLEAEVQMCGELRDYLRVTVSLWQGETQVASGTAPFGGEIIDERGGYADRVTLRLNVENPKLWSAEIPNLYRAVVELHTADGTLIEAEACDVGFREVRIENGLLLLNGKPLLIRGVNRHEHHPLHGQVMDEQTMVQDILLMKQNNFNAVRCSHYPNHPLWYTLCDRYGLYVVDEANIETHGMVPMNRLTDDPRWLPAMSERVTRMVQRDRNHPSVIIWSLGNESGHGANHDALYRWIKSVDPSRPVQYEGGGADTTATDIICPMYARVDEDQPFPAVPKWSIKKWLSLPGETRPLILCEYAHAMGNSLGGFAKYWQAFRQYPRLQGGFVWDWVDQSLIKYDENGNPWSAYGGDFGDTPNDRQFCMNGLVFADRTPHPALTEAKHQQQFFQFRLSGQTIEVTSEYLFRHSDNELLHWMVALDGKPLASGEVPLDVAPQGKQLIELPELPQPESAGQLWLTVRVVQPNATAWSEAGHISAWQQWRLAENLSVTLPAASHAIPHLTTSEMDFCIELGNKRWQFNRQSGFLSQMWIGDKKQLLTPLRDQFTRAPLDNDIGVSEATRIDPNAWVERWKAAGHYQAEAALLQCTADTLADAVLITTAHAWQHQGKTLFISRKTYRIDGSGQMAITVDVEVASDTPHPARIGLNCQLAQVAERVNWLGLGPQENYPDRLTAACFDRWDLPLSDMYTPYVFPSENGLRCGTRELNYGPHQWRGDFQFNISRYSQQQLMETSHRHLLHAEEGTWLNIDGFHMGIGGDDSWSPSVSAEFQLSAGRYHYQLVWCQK
Sequence of Mu-type opioid receptor (P35372 whole entry): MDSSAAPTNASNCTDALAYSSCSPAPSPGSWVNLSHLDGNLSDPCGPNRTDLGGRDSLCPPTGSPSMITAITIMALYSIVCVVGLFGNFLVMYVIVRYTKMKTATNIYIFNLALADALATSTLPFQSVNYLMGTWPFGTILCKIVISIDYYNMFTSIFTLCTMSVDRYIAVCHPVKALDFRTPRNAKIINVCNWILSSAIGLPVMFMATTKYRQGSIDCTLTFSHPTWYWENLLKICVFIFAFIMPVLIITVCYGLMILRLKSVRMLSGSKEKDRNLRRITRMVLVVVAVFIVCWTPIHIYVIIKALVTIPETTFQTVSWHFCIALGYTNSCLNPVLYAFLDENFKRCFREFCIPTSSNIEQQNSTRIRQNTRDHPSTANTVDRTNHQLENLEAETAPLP
Sequence of 72 kDa type IV collagenase (P08253 whole entry): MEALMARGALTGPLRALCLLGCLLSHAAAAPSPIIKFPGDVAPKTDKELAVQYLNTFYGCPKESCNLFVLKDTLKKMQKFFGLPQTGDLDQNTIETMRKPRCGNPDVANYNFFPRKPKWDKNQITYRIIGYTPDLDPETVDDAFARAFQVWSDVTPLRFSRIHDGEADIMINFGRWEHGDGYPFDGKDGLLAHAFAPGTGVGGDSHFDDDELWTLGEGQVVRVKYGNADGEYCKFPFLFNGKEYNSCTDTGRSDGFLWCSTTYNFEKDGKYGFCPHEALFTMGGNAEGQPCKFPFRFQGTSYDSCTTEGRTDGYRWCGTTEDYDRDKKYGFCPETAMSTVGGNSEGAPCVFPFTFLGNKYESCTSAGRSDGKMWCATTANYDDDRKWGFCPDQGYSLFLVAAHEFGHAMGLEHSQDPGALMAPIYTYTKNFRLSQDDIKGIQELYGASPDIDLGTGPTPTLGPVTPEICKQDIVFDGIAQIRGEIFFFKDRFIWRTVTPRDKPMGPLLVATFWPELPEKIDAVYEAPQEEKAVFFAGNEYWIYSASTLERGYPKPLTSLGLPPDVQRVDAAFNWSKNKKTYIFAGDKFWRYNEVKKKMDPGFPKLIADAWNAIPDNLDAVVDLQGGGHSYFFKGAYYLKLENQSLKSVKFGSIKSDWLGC

## O=C(CSc1nnc(SCc2ccc(Cl)cc2)s1)N/N=C/c1c[nH]c2ccccc12
Prothrombin
  IC50: 82.5 µM (active)
[1]
  IC50: 2.02 µM (active)
[2]
  IC50: 3.82 µM (active)
[3]
  IC50: 9.99 µM (active)
[4]
  IC50: > 100 µM (inactive)
SUMO-activating enzyme [5]
  IC50: 48.3 µM (active)
[6]
  IC50: 76.5 µM (active)
[7]
  IC50: > 66.6 µM (inactive)
SUMO-activating enzyme [8]
  IC50: 1.54 µM (active)
[9]
  IC50: 16.2 µM (active)

## Nc1nc(-c2cccc(Br)c2)cs1
Hexokinase HKDC1
  EC50: 31.8 µM (inactive)
Hexokinase-1
  EC50: 49.3 µM (inactive)

## Cc1ccc(NC(=O)Nc2ccc(S(N)(=O)=O)cc2)cc1
[10]
  IC50: 47.6 µM (active)

## Cc1nc(-c2ccccn2)[nH]c(=S)c1Cl
[11]
  IC50: > 32 µM
[12]
  IC50: > 32 µM (inactive)
Mu-type opioid receptor
  EC50: > 32 µM (inactive)
Beta-galactosidase
  EC50: > 31.5 µM (inactive)
[13]
  IC50: 20.3 µM (inactive)
[14]
  EC50: > 32 µM (inactive)
